Source: patent US9090599B2, “Heteroarylmethyl amides” (Hoffman-La Roche Inc., priority 2010, dated 2015)
pEC50: −log10 of the molar value. Like-named read-outs stand apart in the source and are kept apart here.

Columns and labels:
human CB1 receptor = biological target: T1, human CB1 receptor (Homo sapiens, UniProt P21554); test: CB1 receptor affinity, [3H]-CP-55,940 displacement, HEK cell membranes; type: binding; conditions: read-out: CB1 receptor affinity [% inhibition @ 10 μM]
T1 construct: expressed in transfected cells; host or cells: human embryonic kidney (HEK) cells, Semliki Forest Virus system, membrane preparations
T1 sequence (P21554 whole entry): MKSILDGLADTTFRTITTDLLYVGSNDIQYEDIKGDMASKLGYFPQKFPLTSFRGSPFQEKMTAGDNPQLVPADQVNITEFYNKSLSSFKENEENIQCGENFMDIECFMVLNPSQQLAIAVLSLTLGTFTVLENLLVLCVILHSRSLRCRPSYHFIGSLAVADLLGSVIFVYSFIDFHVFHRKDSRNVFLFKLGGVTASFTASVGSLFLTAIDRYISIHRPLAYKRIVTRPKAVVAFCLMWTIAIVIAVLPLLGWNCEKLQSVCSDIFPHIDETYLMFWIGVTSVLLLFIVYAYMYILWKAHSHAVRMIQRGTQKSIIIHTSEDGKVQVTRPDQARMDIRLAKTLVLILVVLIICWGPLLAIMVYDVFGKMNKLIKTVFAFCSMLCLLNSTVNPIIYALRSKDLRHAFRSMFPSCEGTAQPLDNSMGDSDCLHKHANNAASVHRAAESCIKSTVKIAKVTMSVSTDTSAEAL
Description: (§1) The affinity of the compounds of the invention for cannabinoid receptors was determined using membrane preparations of human embryonic kidney (HEK) cells in which the human CB1 receptor is transiently transfected using a Semliki Forest Virus system in conjunction with [3H]-CP-55,940 as radioligand. After incubation of freshly prepared cell membrane preparation with the [^3H]-ligand, with or without addition of compounds of the invention, separation of bound and free ligand was performed by filtration over glass fiber filters. Radioactivity on the filter was measured by scintillation counting.
(§2) The ability of the compounds to displace the radioligand [^3H]-CP-55,940 was measured at a concentration of 10 μM and values provided as [% inhibition @ 10 μM] both for the CB 1 and CB2 receptor assay, The lower % inhibition is, the lower the likelihood of side effects based on CB1 or CB2 receptor inhibition is.

human CB2 receptor = biological target: T2, human CB2 receptor (Homo sapiens, UniProt P34972); test: CB2 receptor affinity, [3H]-CP-55,940 displacement, HEK cell membranes; type: binding; conditions: 10 μM compound, radioligand [3H]-CP-55,940
T2 construct: expressed in transfected cells; host or cells: human embryonic kidney (HEK) cells, Semliki Forest Virus system, membrane preparations
T2 sequence (P34972 whole entry): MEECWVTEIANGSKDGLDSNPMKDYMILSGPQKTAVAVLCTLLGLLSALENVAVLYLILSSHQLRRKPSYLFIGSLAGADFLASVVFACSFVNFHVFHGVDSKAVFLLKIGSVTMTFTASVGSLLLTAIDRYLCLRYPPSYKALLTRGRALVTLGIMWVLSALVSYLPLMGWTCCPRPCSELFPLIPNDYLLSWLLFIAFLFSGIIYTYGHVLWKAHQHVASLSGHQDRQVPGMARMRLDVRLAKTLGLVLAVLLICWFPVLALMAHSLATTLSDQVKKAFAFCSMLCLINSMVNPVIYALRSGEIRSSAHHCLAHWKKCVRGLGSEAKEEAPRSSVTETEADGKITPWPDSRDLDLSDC
Description: as §1, with “cannabinoid CB2” for “cannabinoid”, “CB2” for “CB1”, “[^3H]-CP-55,940” for “[3H]-CP-55,940”
as §2

ABCA1 protein = test: Detection of upregulation of ABCA1 protein in THP-1 macrophage cells (ApoA-I binding, high content imaging); type: cell-based; conditions: 24 hrs with compound, AlexaFluor 647 ApoA-I binding, read-out: ABCA1 protein increasing efficacy EC50
Description: The ability of compounds of the invention to increase the level of ABCA1 protein is determined in replicate cultures of THP-1 macrophage cells in 96-well microplates. Cells are plated at an initial density of 100,000 cells/well in 100 μl medium and differentiated to adherent macrophages with the addition of PMA (100 nM) for 68 hrs in 10% fetal bovine serum, 3 μl/L of b-mercaptoethanol, RPMI-1640 medium. Then, cells are incubated with RPMI-1640 medium containing 1% FCS, 25 μg/ml acetylated LDL, for 24 hours at 37°. Following incubation with acetylated LDL, cells are washed twice with 50 μl PBS and incubated with 100 μl of RPMI-1640 medium containing the compound of interest solubilized in DMSO for an additional 24 hrs. The final DMSO concentration in presence of cells is maintained at 0.5%. ApoA-I binding assay using High Content Image Analysis is initiated by replacing with fresh medium, RPMI without Phenol Red, 0.2% BSA containing AlexaFluor®647 labeled ApoA-I for 2 h/37° C./5% CO2. Then, cells are fixed with 4% Formaldehyde in PBS (15 min, RT). Following Nuclei are stained with Hoechst solution (3 μM PBS) and Cytoplasm with Cell Mask Blue (2 μg/ml PBS), 15 min, RT. Finally the stained cells are fixed with a second round of formaldehyde treatment. Fixed stained cells are washed and kept in PBS at 4° C. and can be read immediately until one month after preparation.
The Alexa Fluor 647-labeled Apolipoprotein A-I (20 nM) was prepared as follows: Human recombinant Apolipoprotein A-I (ApoA-I) was exchanged to a buffer of 0.02 M NaHCO3 at pH 8.2 on an NAP desalting column (GE Healthcare) and brought to a concentration to 40 μM (1.13 mg/ml) by adjustment with the same buffer. The ApoA-I was fluorescently labeled by incubation with Alexa Fluor carboxylic acid succimidyl ester. (Alexa Fluor 647, Invitrogen A-20006) at a 2:1 molar ratio (Alexa to ApoA-I) for 1 h under shaking at RT. The remaining unconjugated label was removed by buffer exchange to 0.02M NaHCO3 at pH 8.2.
Imaging and data collection were performed on an OPERA confocal microplate imaging reader using a 20× water immersion objective and UV360 or 405 laser to identify the cell nuclei and a 635 laser to identify the fluorescent ApoA-I. Eight fields of view are captured per well. Image capture and analysis was performed with the Acapella software. Background fluorescence detected in control wells without ApoA-I was subtracted.
Using XLfit3 program (ID Business Solutions Ltd. UK), the model 205 for Dose Response One Site is used to calculate the EC50 values. […] Preferably, the compounds of the present invention have EC50 values in a range of 0.1 μM to 3 μM.

[1] = 10 μM compound, radioligand [3H]-CP-55,940

Structure (SMILES)	inhibition at 10 µM (human CB1 receptor; [1]) [%]	inhibition at 10 µM (human CB2 receptor) [%]	pEC50 (ABCA1 protein)	inhibition at 10 µM (human CB1 receptor) [%]
COc1cc(CNC(=O)c2cc(-c3ccc(Cl)cc3)c(OCC(F)(F)F)cn2)on1 [Example 1, 4-(4-chloro-phenyl)-5-(2,2,2-trifluoro-ethoxy)-pyridine-2-carboxylic acid (3-methoxy-isoxazol-5-ylmethyl)-amide]	32	28	5.70	
CC(C)c1cc(CNC(=O)c2cc(-c3ccc(Cl)cc3)c(OCC(F)(F)F)cn2)on1 [Example 2, 4-(4-chloro-phenyl)-5-(2,2,2-trifluoro-ethoxy)-pyridine-2-carboxylic acid (3-isopropyl-isoxazol-5-ylmethyl)-amide]	30	14	5.96	
CCc1cc(CNC(=O)c2cc(-c3ccc(Cl)cc3)c(OCC(F)(F)F)cn2)on1 [Example 3, 4-(4-chloro-phenyl)-5-(2,2,2-trifluoro-ethoxy)-pyridine-2-carboxylic acid (3-ethyl-isoxazol-5-ylmethyl)-amide]		18	5.91	38
CCCn1ccc(CNC(=O)c2cc(-c3ccc(Cl)cc3)c(OCC(F)(F)F)cn2)n1 [Example 4, 4-(4-chloro-phenyl)-5-(2,2,2-trifluoro-ethoxy)-pyridine-2-carboxylic acid (1-propyl-1H-pyrazol-3-ylmethyl)-amide]	26	33	5.55	
COc1cc(CNC(=O)c2cnc(OCC(F)(F)F)c(-c3ccc(Cl)cc3)c2)on1 [Example 5, 5-(4-chloro-phenyl)-N-(3-methoxy-isoxazol-5-ylmethyl)-6-(2,2,2-trifluoro-ethoxy)-nicotinamide]	48	5	5.68	
CC(C)c1nc(CNC(=O)c2cc(-c3ccc(Cl)cc3)c(OCC(F)(F)F)cn2)cs1 [Example 6, 4-(4-chloro-phenyl)-5-(2,2,2-trifluoro-ethoxy)-pyridine-2-carboxylic acid (2-isopropyl-thiazol-4-ylmethyl)-amide]	5	15	5.11	
CCc1nc(CNC(=O)c2cnc(OCC(F)(F)F)c(-c3ccc(Cl)cc3)c2)cs1 [Example 7, 5-(4-chloro-phenyl)-N-(2-ethyl-thiazol-4-ylmethyl)-6-(2,2,2-trifluoro-ethoxy)-nicotinamide]	22	6	5.82	
CC(C)c1nc(CNC(=O)c2cnc(OCC(F)(F)F)c(-c3ccc(Cl)cc3)c2)cs1 [Example 8, 5-(4-chloro-phenyl)-N-(2-isopropyl-thiazol-4-ylmethyl)-6-(2,2,2-trifluoro-ethoxy)-nicotinamide]		10	6.05	24
CCCc1nc(CNC(=O)c2cnc(OCC(F)(F)F)c(-c3ccc(Cl)cc3)c2)cs1 [Example 9, 5-(4-chloro-phenyl)-N-(2-propyl-thiazol-4-ylmethyl)-6-(2,2,2-trifluoro-ethoxy)-nicotinamide]	18	1	6.05	
CCCc1nc(CNC(=O)c2cnc(OCC3CC3)c(-c3ccc(Cl)cc3)c2)cs1 [Example 11, 5-(4-chloro-phenyl)-6-cyclopropylmethoxy-N-(2-propyl-thiazol-4-ylmethyl)-nicotinamide]		12	5.82	25
O=C(NCc1noc(C(F)(F)F)n1)c1cnc(OCC(F)(F)F)c(-c2ccc(Cl)cc2)c1 [Example 12, 5-(4-chloro-phenyl)-6-(2,2,2-trifluoro-ethoxy)-N-(5-trifluoromethyl-[1,2,4]oxadiazol-3-ylmethyl)-nicotinamide]	43	-4	5.93	
CCCn1ccc(CNC(=O)c2cnc(OCC(F)(F)F)c(-c3ccc(Cl)cc3)c2)n1 [Example 14, 5-(4-chloro-phenyl)-N-(1-propyl-1H-pyrazol-3-ylmethyl)-6-(2,2,2-trifluoro-ethoxy)-nicotinamide]	48	12	6.02	
O=C(NCc1nc(C(F)(F)F)no1)c1cnc(OCC(F)(F)F)c(-c2ccc(Cl)cc2)c1 [Example 15, 5-(4-chloro-phenyl)-6-(2,2,2-trifluoro-ethoxy)-N-(3-trifluoromethyl-[1,2,4]oxadiazol-5-ylmethyl)-nicotinamide]	45	-6	6.08	
O=C(NCc1nc(C(F)(F)F)no1)c1cc(-c2ccc(Cl)cc2)c(OCC2CC2)cn1 [Example 18, 4-(4-chlorophenyl)-5-(cyclopropylmethoxy)-N-((3-(trifluoromethyl)-1,2,4-oxadiazol-5-yl)methyl)picolinamide]	28	24	5.16	
O=C(NCc1nc(C(F)(F)F)no1)c1ccc(OCC(F)(F)F)c(-c2ccc(Cl)cc2)n1 [Example 22, 6-(4-chloro-phenyl)-5-(2,2,2-trifluoro-ethoxy)-pyridine-2-carboxylic acid (3-trifluoromethyl-[1,2,4]oxadiazol-5-ylmethyl)-amide]	40	6	5.64	
COc1cc(CNC(=O)c2cc(-c3ccc(Cl)cc3)c(OCC(F)(F)F)nn2)on1 [Example 23, 5-(4-chlorophenyl)-N-((3-methoxyisoxazol-5-yl)methyl)-6-(2,2,2-trifluoroethoxy)pyridazine-3-carboxamide]	18	7	6.03	
COCCOc1ncc(C(=O)NCc2nc(C(F)(F)F)no2)cc1-c1ccc(Cl)c(C)c1 [Example 98, 5-(4-chloro-3-methylphenyl)-6-(2-methoxyethoxy)-N-((3-(trifluoromethyl)-1,2,4-oxadiazol-5-yl)methyl)nicotinamide]	41	16		
O=C(NCc1ccccn1)c1cnc(OC2CCC2)c(-c2ccc(Cl)cc2)c1 [Example 101, 5-(4-chlorophenyl)-6-cyclobutoxy-N-(pyridin-2-ylmethyl)nicotinamide]	45	37		
O=C(NCc1nc(C(F)(F)F)no1)c1cnc(OCCO)c(-c2ccc(Cl)cc2)c1 [Example 102, 5-(4-chlorophenyl)-6-(2-hydroxyethoxy)-N-((3-(trifluoromethyl)-1,2,4-oxadiazol-5-yl)methyl)nicotinamide]	26	-4		
O=C(NCc1nc(C(F)(F)F)no1)c1cnc(O[C@@H]2CCOC2)c(-c2ccc(Cl)cc2)c1 [Example 103, (R)-5-(4-chlorophenyl)-6-(tetrahydrofuran-3-yloxy)-N-((3-(trifluoromethyl)-1,2,4-oxadiazol-5-yl)methyl)nicotinamide]	47	24		
